# Data reported in patent publication US8163709B2, “TAK1-D mediated induction of cell death in human cancer cells by specific sequence short double-stranded RNAS” (Board of Regents of the University of Texas System, priority 2008, dated 2012).
# How the values were obtained:
# [1] = target: T1, TAK1-D (Homo sapiens, UniProt O43318); test: Subcellular localization of TAK1-D in H460 cells (fractionation, immunofluorescence); assay type: cell-based; set-up: endogenous in cells; host or cells: NCI-H460
# T1 sequence (O43318 1-491 isoform O43318-4): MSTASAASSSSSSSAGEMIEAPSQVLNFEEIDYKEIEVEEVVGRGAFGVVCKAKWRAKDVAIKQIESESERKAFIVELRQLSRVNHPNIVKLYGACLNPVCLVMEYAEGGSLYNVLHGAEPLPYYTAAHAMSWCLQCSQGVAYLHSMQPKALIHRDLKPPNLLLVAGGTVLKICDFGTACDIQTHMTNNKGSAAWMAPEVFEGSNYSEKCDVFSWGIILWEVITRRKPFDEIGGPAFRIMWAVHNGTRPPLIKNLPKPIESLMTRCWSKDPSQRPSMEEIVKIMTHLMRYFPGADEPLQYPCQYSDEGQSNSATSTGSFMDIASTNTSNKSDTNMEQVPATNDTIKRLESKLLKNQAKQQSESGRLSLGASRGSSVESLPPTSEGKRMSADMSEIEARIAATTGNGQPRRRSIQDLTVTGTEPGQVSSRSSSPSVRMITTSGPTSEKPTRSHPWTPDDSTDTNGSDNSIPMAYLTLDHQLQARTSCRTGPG
# Procedure: Subcellular fractionation. About […] H460 cells growing in a 10 cm dish were transfected with 20 nM dsRNA si5 or si6. […] A crude nuclear pellet (P.7) was obtained by centrifugation at 700 g and 4° C. for 5 minutes. The supernatant was centrifuged at 10,000 g and 4° C. for 30 minutes producing the P10 pellet and finally separated by ultracentrifugation (Sorvall 90SE ultracentrifuge and Sorvall AH-629 rotor) at 150,000 g and 4° C. for 1 hour into pellet (P150) and supernatant (S150). Proteins from the S150 fraction were concentrated by precipitation with 10% trichloroacetic acid (TCA). All pellets were dissolved in SDS sample buffer.
# Immunofluorescence. H460 cells stably expressing TAK1-D fused on its c-terminus to a FLAG tag were generated as described above for the K36W mutant. Cells were transfected with 20 nM si5 or si6 and fixed in 4% formaldehyde 6 h later. After 15 min of fixation at room temperature cells were washed 3 times in PBS and permeabilized in methanol at −20° C. for 10 min. After one wash in PBS slides were blocked for 1 hour at room temperature in PBS containing 1% BSA. […] After three 5 min washes in PBS cells were visualized by fluorescence microscopy. […]
# [2] = tested on: p38 MAPK; test: p38 MAPK cascade activation in HCC2279 cells (Western blot); assay type: cell-based, human
# Source text: A possible application for the above mentioned findings in cancer therapy requires data on the effects of dsRNA mediated activation of Tak1-D in other tumors and in normal tissues. To test whether dsRNA mediated cell killing also occurs in other tumor cell lines, the NSCLC cell line HCC2279 was chosen. This cell line originated from an adenocarcinoma and was initially described by Wistuba et al. (1999).
substance,measurement,setting,value
si5: 21-mer siRNA against TLK1 mRNA: GGCUUUUGACCUUUAUGAAtt (SEQ ID NO: 2) / ttCCGAAAACUGGAAAUACUU (SEQ ID NO: 3) (sense GGCUUUUGACCUUUAUGAATT; antisense TTCCGAAAACUGGAAAUACUU; chemistry not given here; one strand is listed 3' to 5'),colocalization of FLAG-TAK1-D and ribosomes (S6),"[1]; H460, 20 nM, 6 h, immunofluorescence",increased colocalization
same,"amount of TAK1-D in the 150,000 g pellet","[1]; H460, 4 h, compared to control si6",increased
same,activation of p38 MAPK,[2],activate p38 MAPK
